Reference: the NIST ThermoML archive (doi:10.1021/je9009442)

Assay: wn = mass fraction of the nth substance listed
Details: Liquid, inclined tube viscometer, w1 = 0.505

FC(F)C(F)(F)F [pentafluoroethane] + FCF
Details	kinematic viscosity [m2/s]
256.15 K	1.72e-07
258.15 K	1.685e-07
260.15 K	1.652e-07
262.15 K	1.619e-07
264.15 K	1.587e-07
266.15 K	1.556e-07
268.15 K	1.526e-07
270.15 K	1.497e-07
272.15 K	1.468e-07
274.15 K	1.44e-07
276.15 K	1.413e-07
278.15 K	1.386e-07
280.15 K	1.36e-07
282.15 K	1.335e-07
284.15 K	1.31e-07
286.15 K	1.285e-07
288.15 K	1.262e-07
290.15 K	1.238e-07
292.15 K	1.215e-07
294.15 K	1.193e-07
296.15 K	1.171e-07
298.15 K	1.15e-07
300.15 K	1.129e-07
302.15 K	1.108e-07
304.15 K	1.088e-07
306.15 K	1.068e-07
308.15 K	1.048e-07
310.15 K	1.029e-07
312.15 K	1.01e-07
314.15 K	9.92e-08
316.15 K	9.73e-08
318.15 K	9.55e-08
320.15 K	9.38e-08
322.15 K	9.2e-08
324.15 K	9.03e-08
326.15 K	8.86e-08
328.15 K	8.7e-08
330.15 K	8.53e-08
332.15 K	8.37e-08
334.15 K	8.21e-08
336.15 K	8.06e-08
